Assay results published in US20080039422A1, “Vitamin B12-Containing Compositions and Methods of Use” (Transition Therapeutics Inc., priority 2004, published 2008).

Tests used:
[1] = Time course of CN-Cbl in solution (8 hours, 200 hours); format: physicochemical
Protocol: To establish more precise time courses, ten samples were prepared containing various challenge amounts of CN-Cbl in solutions containing ethanol and propylene glycol. Five of the solutions contained 15% ethanol and 20% propylene glycol and five contained 20% ethanol and 40% propylene glycol. Within each set of five, they were challenged with: (1) 50 mg/ml CN-Cbl; (2) 75 mg/ml CN-Cbl; (3) 100 mg/ml CN-Cbl; (4) 150 mg/ml CN-Cbl; and (5) 200 mg/ml CN-Cbl. To generate the solutions, the methods described above were modified by heating the solutions for 30 consecutive minutes at 60° C., after which time there was no visible precipitate. Samples were also retained within the same tubes for the duration of the study, rather than transferring supernatant fractions to fresh tubes at each time point. The concentrations were recorded eleven times; seven times within the first eight hours following the initial combination and four times over the subsequent 192 hours. The concentrations were measured at 0.5 hours, 1.0 hour, 2.0 hours, 3.0 hours, 4.0 hours, 6.0 hours, 8.0 hours, 24.0 hours, 32.0 hours, 100 hours, and 200 hours. The concentration of CN-Cbl was measured and the percentage of CN-Cbl remaining in solution was calculated.

[2] = Stability of CN-Cbl solutions stored at room temperature (3 days, 2 weeks); format: physicochemical; conditions: for Conc of CN-Cbl: After 2 weeks at Room Temperature
Protocol: To determine the stability of the various solutions, the clarified stocks were aliquoted into fresh tubes and stored at room temperature, protected from light, for up to two weeks. Prior to measuring the concentrations of CN-Cbl on subsequent occasions, the tubes were centrifuged for ten minutes at rcf 16,100. The concentration of CN-Cbl was measured as described above by spectrophotometry.
In the experiments described above, the concentration of CN-Cbl was measured within an hour or two after the components of the solutions were initially combined. To determine the stability of the preparations, the concentrations of CN-Cbl were measured in individual excipients after three days and the concentrations of CN-Cbl in combined excipients were measured after two weeks. Tables 3A-3B are tables showing the concentrations of CN-Cbl (mg/ml) in various solutions after three days incubation at room temperature. Solutions containing 0-60% propylene glycol (Table 3A) and solutions containing 0-40% ethanol (Table 3B) were challenged with 50, 75, 100, and 125 mg/ml CN-Cbl. Table 4 is a table showing the concentrations of CN-Cbl in excipients containing ethanol and propylene glycol after two weeks incubation at room temperature. The solutions were challenged with either 50 or 75 mg/ml CN-Cbl and the excipients contained ethanol (10, 15, or 20%) and propylene glycol (20, 30, or 40%). […] Regardless of the diminution in concentration over time, however, it was hypothesized that the initial concentrations of CN-Cbl could be restored with an additional application of energy (e.g., mixing, heating, or both mixing and heating; see below).

cyanocobalamin [CN-Cbl]
CN-Cbl in solution over time ([1]; challenge 150 and 200 mg/ml, greater in 15% ethanol/20% PG than in 20% ethanol/40% PG): some precipitation | CN-Cbl in solution over time ([1]; first eight hours (held true over 200 hours), challenge 50, 75 and 100 mg/ml, 15% ethanol/20% PG and 20% ethanol/40% PG): remained in solution | Conc of CN-Cbl ([2]; challenge 50 mg/mL, ethanol 10%, PG 20% (v/v)): 26680 µg/mL | Conc of CN-Cbl ([2]; challenge 50 mg/mL, ethanol 10%, PG 30% (v/v)): 39460 µg/mL | Conc of CN-Cbl ([2]; challenge 50 mg/mL, ethanol 10%, PG 40% (v/v)): 50650 µg/mL | Conc of CN-Cbl ([2]; challenge 50 mg/mL, ethanol 15%, PG 20% (v/v)): 48720 µg/mL | Conc of CN-Cbl ([2]; challenge 50 mg/mL, ethanol 15%, PG 30% (v/v)): 49780 µg/mL | Conc of CN-Cbl ([2]; challenge 50 mg/mL, ethanol 15%, PG 40% (v/v)): 49390 µg/mL | Conc of CN-Cbl ([2]; challenge 50 mg/mL, ethanol 20%, PG 20% (v/v)): 47080 µg/mL | Conc of CN-Cbl ([2]; challenge 50 mg/mL, ethanol 20%, PG 30% (v/v)): 49780 µg/mL | Conc of CN-Cbl ([2]; challenge 50 mg/mL, ethanol 20%, PG 40% (v/v)): 49870 µg/mL | Conc of CN-Cbl ([2]; challenge 75 mg/mL, ethanol 10%, PG 20% (v/v)): 26910 µg/mL | Conc of CN-Cbl ([2]; challenge 75 mg/mL, ethanol 10%, PG 30% (v/v)): 35210 µg/mL | Conc of CN-Cbl ([2]; challenge 75 mg/mL, ethanol 10%, PG 40% (v/v)): 55660 µg/mL | Conc of CN-Cbl ([2]; challenge 75 mg/mL, ethanol 15%, PG 20% (v/v)): 33280 µg/mL | Conc of CN-Cbl ([2]; challenge 75 mg/mL, ethanol 15%, PG 30% (v/v)): 43310 µg/mL | Conc of CN-Cbl ([2]; challenge 75 mg/mL, ethanol 15%, PG 40% (v/v)): 74280 µg/mL | Conc of CN-Cbl ([2]; challenge 75 mg/mL, ethanol 20%, PG 20% (v/v)): 38390 µg/mL | Conc of CN-Cbl ([2]; challenge 75 mg/mL, ethanol 20%, PG 30% (v/v)): 59620 µg/mL | Conc of CN-Cbl ([2]; challenge 75 mg/mL, ethanol 20%, PG 40% (v/v)): 75820 µg/mL | concentration of CN-Cbl ([2]; After 3 days at Room Temperature, challenge 50 mg/ml, PG 0% v/v): 13600 µg/mL | concentration of CN-Cbl ([2]; After 3 days at Room Temperature, challenge 50 mg/ml, PG 10% v/v): 19500 µg/mL | concentration of CN-Cbl ([2]; After 3 days at Room Temperature, challenge 50 mg/ml, PG 20% v/v): 25300 µg/mL | concentration of CN-Cbl ([2]; After 3 days at Room Temperature, challenge 50 mg/ml, PG 30% v/v): 31000 µg/mL | concentration of CN-Cbl ([2]; After 3 days at Room Temperature, challenge 50 mg/ml, PG 40% v/v): 50000 µg/mL | concentration of CN-Cbl ([2]; After 3 days at Room Temperature, challenge 50 mg/ml, PG 50% v/v): 49900 µg/mL | concentration of CN-Cbl ([2]; After 3 days at Room Temperature, challenge 50 mg/ml, PG 60% v/v): 51500 µg/mL | concentration of CN-Cbl ([2]; After 3 days at Room Temperature, challenge 75 mg/ml, PG 0% v/v): 15000 µg/mL | concentration of CN-Cbl ([2]; After 3 days at Room Temperature, challenge 75 mg/ml, PG 10% v/v): 20100 µg/mL | concentration of CN-Cbl ([2]; After 3 days at Room Temperature, challenge 75 mg/ml, PG 20% v/v): 25800 µg/mL | concentration of CN-Cbl ([2]; After 3 days at Room Temperature, challenge 75 mg/ml, PG 30% v/v): 30500 µg/mL | concentration of CN-Cbl ([2]; After 3 days at Room Temperature, challenge 75 mg/ml, PG 40% v/v): 40500 µg/mL | concentration of CN-Cbl ([2]; After 3 days at Room Temperature, challenge 75 mg/ml, PG 50% v/v): 67000 µg/mL | concentration of CN-Cbl ([2]; After 3 days at Room Temperature, challenge 75 mg/ml, PG 60% v/v): 75800 µg/mL | concentration of CN-Cbl ([2]; After 3 days at Room Temperature, challenge 100 mg/ml, PG 0% v/v): 14900 µg/mL | concentration of CN-Cbl ([2]; After 3 days at Room Temperature, challenge 100 mg/ml, PG 10% v/v): 19500 µg/mL | concentration of CN-Cbl ([2]; After 3 days at Room Temperature, challenge 100 mg/ml, PG 20% v/v): 25000 µg/mL | concentration of CN-Cbl ([2]; After 3 days at Room Temperature, challenge 100 mg/ml, PG 30% v/v): 28800 µg/mL | concentration of CN-Cbl ([2]; After 3 days at Room Temperature, challenge 100 mg/ml, PG 40% v/v): 37600 µg/mL | concentration of CN-Cbl ([2]; After 3 days at Room Temperature, challenge 100 mg/ml, PG 50% v/v): 55900 µg/mL | concentration of CN-Cbl ([2]; After 3 days at Room Temperature, challenge 100 mg/ml, PG 60% v/v): 97200 µg/mL | concentration of CN-Cbl ([2]; After 3 days at Room Temperature, challenge 125 mg/ml, PG 0% v/v): 14500 µg/mL | concentration of CN-Cbl ([2]; After 3 days at Room Temperature, challenge 125 mg/ml, PG 10% v/v): 20400 µg/mL | concentration of CN-Cbl ([2]; After 3 days at Room Temperature, challenge 125 mg/ml, PG 20% v/v): 23100 µg/mL | concentration of CN-Cbl ([2]; After 3 days at Room Temperature, challenge 125 mg/ml, PG 30% v/v): 28300 µg/mL | concentration of CN-Cbl ([2]; After 3 days at Room Temperature, challenge 125 mg/ml, PG 40% v/v): 38600 µg/mL | concentration of CN-Cbl ([2]; After 3 days at Room Temperature, challenge 125 mg/ml, PG 50% v/v): 46200 µg/mL | concentration of CN-Cbl ([2]; After 3 days at Room Temperature, challenge 125 mg/ml, PG 60% v/v): 78700 µg/mL | concentration of CN-Cbl ([2]; after three days at room temperature, challenge 50 mg/ml, EtOH 0% v/v): 13600 µg/mL | concentration of CN-Cbl ([2]; after three days at room temperature, challenge 50 mg/ml, EtOH 10% v/v): 20500 µg/mL | concentration of CN-Cbl ([2]; after three days at room temperature, challenge 50 mg/ml, EtOH 20% v/v): 26900 µg/mL | concentration of CN-Cbl ([2]; after three days at room temperature, challenge 50 mg/ml, EtOH 30% v/v): 40000 µg/mL | concentration of CN-Cbl ([2]; after three days at room temperature, challenge 50 mg/ml, EtOH 40% v/v): 47600 µg/mL | concentration of CN-Cbl ([2]; after three days at room temperature, challenge 75 mg/ml, EtOH 0% v/v): 15000 µg/mL | concentration of CN-Cbl ([2]; after three days at room temperature, challenge 75 mg/ml, EtOH 10% v/v): 23000 µg/mL | concentration of CN-Cbl ([2]; after three days at room temperature, challenge 75 mg/ml, EtOH 20% v/v): 26100 µg/mL | concentration of CN-Cbl ([2]; after three days at room temperature, challenge 75 mg/ml, EtOH 30% v/v): 43000 µg/mL | concentration of CN-Cbl ([2]; after three days at room temperature, challenge 75 mg/ml, EtOH 40% v/v): 53400 µg/mL | concentration of CN-Cbl ([2]; after three days at room temperature, challenge 100 mg/ml, EtOH 0% v/v): 14900 µg/mL | concentration of CN-Cbl ([2]; after three days at room temperature, challenge 100 mg/ml, EtOH 10% v/v): 24000 µg/mL | concentration of CN-Cbl ([2]; after three days at room temperature, challenge 100 mg/ml, EtOH 20% v/v): 27800 µg/mL | concentration of CN-Cbl ([2]; after three days at room temperature, challenge 100 mg/ml, EtOH 30% v/v): 34500 µg/mL | concentration of CN-Cbl ([2]; after three days at room temperature, challenge 100 mg/ml, EtOH 40% v/v): 46100 µg/mL | concentration of CN-Cbl ([2]; after three days at room temperature, challenge 125 mg/ml, EtOH 0% v/v): 14500 µg/mL | concentration of CN-Cbl ([2]; after three days at room temperature, challenge 125 mg/ml, EtOH 10% v/v): 21500 µg/mL | concentration of CN-Cbl ([2]; after three days at room temperature, challenge 125 mg/ml, EtOH 20% v/v): 28400 µg/mL | concentration of CN-Cbl ([2]; after three days at room temperature, challenge 125 mg/ml, EtOH 30% v/v): 37900 µg/mL | concentration of CN-Cbl ([2]; after three days at room temperature, challenge 125 mg/ml, EtOH 40% v/v): 50900 µg/mL
